Experimental data published in ChEMBL document CHEMBL5241090, “A comprehensive overview of β-carbolines and its derivatives as anticancer agents” (Eur J Med Chem, 2021).
≈ marks a conversion by molar mass, not a printed value. One block for each compound: values may come before it.

Experiments:
MCF7 [1] = assay: Cytotoxicity against human MCF7 cells by MTT assay; format: functional, cell-based
OVCAR-3 = assay: Cytotoxicity against human OVCAR-3 cells by MTT assay; format: functional, cell-based
HCT-116 [2] = assay: Cytotoxicity against human HCT-116 cells by MTT assay; format: functional, cell-based
HepG2 [3] = assay: Cytotoxicity against human HepG2 cells assessed as reduction in optical density by MTT assay; format: functional, cell-based
[4] = Cytotoxicity against human 95-D cells assessed as reduction in optical density by MTT assay; format: functional, cell-based
SGC-7901 [5] = assay: Cytotoxicity against human SGC-7901 cells assessed as reduction in optical density by MTT assay; format: functional, cell-based
NCI-H187 = assay: Cytotoxicity against human NCI-H187 cells; format: functional, cell-based
SMMC-7721 [6] = assay: Cytotoxicity against human SMMC-7721 cells measured after 72 hrs by MTT assay; format: functional, cell-based; details: SMMC-7721, 72 h
Huh-7 = assay: Cytotoxicity against human Huh-7 cells measured after 72 hrs by MTT assay; format: functional, cell-based; details: Huh-7, 72 h
HCT-116 [7] = assay: Cytotoxicity against human HCT-116 cells measured after 72 hrs by MTT assay; format: functional, cell-based; details: HCT-116, 72 h
Bel-7402 = assay: Cytotoxicity against human Bel-7402 cells measured after 72 hrs by MTT assay; format: functional, cell-based; details: Bel-7402, 72 h
Bel7402/5-FU = assay: Cytotoxicity against human BEL-7402/5-FU cells measured after 72 hrs by MTT assay; format: functional, cell-based
DNA topoisomerase 1 = molecular target: T1, DNA topoisomerase 1 (Homo sapiens, UniProt P11387); assay: Inhibition of Topoisomerase 1 (unknown origin)
T1 sequence (P11387 whole entry): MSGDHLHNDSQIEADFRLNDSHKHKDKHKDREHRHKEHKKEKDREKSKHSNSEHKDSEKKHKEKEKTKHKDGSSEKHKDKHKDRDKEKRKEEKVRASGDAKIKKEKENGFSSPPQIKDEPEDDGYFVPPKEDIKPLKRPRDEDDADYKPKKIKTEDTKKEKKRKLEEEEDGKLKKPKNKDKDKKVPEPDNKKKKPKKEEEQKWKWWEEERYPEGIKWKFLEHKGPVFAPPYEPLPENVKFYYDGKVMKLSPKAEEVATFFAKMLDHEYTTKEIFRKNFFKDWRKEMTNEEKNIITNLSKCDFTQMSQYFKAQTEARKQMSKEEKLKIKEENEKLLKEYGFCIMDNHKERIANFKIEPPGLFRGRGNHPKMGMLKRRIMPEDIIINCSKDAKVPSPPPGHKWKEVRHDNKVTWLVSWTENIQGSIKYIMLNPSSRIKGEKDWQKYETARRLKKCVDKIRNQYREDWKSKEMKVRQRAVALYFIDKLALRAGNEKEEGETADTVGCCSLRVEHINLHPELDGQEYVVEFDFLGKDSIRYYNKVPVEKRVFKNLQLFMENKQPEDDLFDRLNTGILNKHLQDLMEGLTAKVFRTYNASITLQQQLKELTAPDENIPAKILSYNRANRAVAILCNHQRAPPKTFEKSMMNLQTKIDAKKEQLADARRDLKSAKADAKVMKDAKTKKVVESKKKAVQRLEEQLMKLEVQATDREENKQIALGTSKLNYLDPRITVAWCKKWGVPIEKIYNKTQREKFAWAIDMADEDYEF

[8] = molecular target: T2, Kinesin-like protein KIF11 (Homo sapiens, UniProt P52732); assay: Inhibition of KSP (unknown origin)
T2 sequence (P52732 whole entry): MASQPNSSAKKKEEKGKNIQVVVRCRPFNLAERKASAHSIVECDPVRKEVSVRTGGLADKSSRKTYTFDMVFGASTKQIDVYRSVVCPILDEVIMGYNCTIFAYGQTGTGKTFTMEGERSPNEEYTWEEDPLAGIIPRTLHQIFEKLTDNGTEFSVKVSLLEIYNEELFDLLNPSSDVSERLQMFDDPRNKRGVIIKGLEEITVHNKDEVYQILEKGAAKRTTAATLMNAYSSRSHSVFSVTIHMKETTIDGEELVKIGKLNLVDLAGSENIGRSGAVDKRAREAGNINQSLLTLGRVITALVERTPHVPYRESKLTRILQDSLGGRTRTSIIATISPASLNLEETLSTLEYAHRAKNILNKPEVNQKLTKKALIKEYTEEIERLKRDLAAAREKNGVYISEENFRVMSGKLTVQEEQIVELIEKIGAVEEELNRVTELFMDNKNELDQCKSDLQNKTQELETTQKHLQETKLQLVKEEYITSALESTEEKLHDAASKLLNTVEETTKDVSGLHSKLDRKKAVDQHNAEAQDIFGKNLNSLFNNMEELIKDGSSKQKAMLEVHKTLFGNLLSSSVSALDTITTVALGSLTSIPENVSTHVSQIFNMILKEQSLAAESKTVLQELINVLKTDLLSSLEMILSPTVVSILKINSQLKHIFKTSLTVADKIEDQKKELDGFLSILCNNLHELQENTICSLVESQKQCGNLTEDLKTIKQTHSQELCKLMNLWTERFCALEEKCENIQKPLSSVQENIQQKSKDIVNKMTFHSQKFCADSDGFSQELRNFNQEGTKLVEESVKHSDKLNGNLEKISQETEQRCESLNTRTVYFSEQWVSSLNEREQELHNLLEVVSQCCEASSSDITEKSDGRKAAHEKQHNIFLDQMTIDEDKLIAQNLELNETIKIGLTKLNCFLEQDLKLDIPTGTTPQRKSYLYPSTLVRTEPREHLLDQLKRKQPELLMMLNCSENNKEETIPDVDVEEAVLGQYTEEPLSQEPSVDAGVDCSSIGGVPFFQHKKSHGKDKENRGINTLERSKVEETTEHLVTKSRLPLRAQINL

SMMC-7721 [9] = assay: Cytotoxicity against human SMMC-7721 cells measured after 48 hrs by MTT assay; format: functional, cell-based; details: SMMC-7721, 48 h
SGC-7901 [10] = assay: Cytotoxicity against human SGC-7901 cells measured after 48 hrs by MTT assay; format: functional, cell-based; details: SGC-7901, 48 h
HeLa = assay: Cytotoxicity against human HeLa cells measured after 48 hrs by MTT assay; format: functional, cell-based
A549 [11] = assay: Cytotoxicity against human A549 cells measured after 48 hrs by MTT assay; format: functional, cell-based; details: A549, 48 h
MCF7 [12] = assay: Cytotoxicity against human MCF7 cells measured after 24 hrs by MTT assay; format: functional, cell-based; details: MCF7, 24 h
A549 [13] = assay: Cytotoxicity against human A549 cells measured after 24 hrs by MTT assay; format: functional, cell-based; details: A549, 24 h
COLO 205 = assay: Cytotoxicity against human COLO 205 cells measured after 24 hrs by MTT assay; format: functional, cell-based; details: COLO 205, 24 h
A2780 = assay: Cytotoxicity against human A2780 cells measured after 24 hrs by MTT assay; format: functional, cell-based; details: A2780, 24 h
MDA-MB-231 = assay: Growth inhibition of human MDA-MB-231 cells incubated for 72 hrs by SRB assay; format: functional, cell-based; details: MDA-MB-231, 72 h
HT-29 = assay: Growth inhibition of human HT-29 cells incubated for 72 hrs by SRB assay; format: functional, cell-based; details: HT-29, 72 h
A549 [14] = assay: Growth inhibition of human A549 cells incubated for 72 hrs by SRB assay; format: functional, cell-based; details: A549, 72 h
HepG2 [15] = assay: Cytotoxicity against human HepG2 cells; format: functional, cell-based; details: read-out: TC50 (the source's name)
MCF7 [16] = assay: Cytotoxicity against human MCF7 cells measured after 48 hrs by MTT assay; format: functional, cell-based; details: MCF7, 48 h
HGC-27 = assay: Cytotoxicity against human HGC-27 cells measured after 48 hrs by MTT assay; format: functional, cell-based; details: HGC-27, 48 h
PC-3 = assay: Cytotoxicity against human PC-3 cells measured after 48 hrs by MTT assay; format: functional, cell-based; details: PC-3, 48 h
Col2 = assay: Cytotoxicity against human Col2 cells; format: functional, cell-based
[17] = Cytotoxicity against human Lu1 cells; format: functional, cell-based
HUVEC = assay: Cytotoxicity against human HUVEC cells; format: functional, cell-based
LNCaP = assay: Cytotoxicity against human LNCaP cells; format: functional, cell-based
TERT-RPE1 = assay: Cytotoxicity against human TERT-RPE1 cells; format: functional, cell-based; details: RPE-1

Compound: COc1ccc2c3ccnc(C)c3n(CC(=O)N/N=C/c3ccc(C(C)(C)C)cc3)c2c1
- IC50 (MCF7 [1]): 4000 nM
- IC50 (OVCAR-3): 2500 nM
- IC50 (HCT-116 [2]): 5 µM

Compound: COc1ccc2c3ccnc(C)c3n(CCCc3ccccc3)c2c1
- IC50 (HepG2 [3]): < 36 µM
- IC50 [4]: 36 µM
- IC50 (SGC-7901 [5]): < 36 µM

Compound: COC(=O)c1cc2c([nH]c3ccccc32)c([C@H](C)O)n1
- IC50 (NCI-H187): 75.1 µM

Compound: CCn1c2cc(OC)ccc2c2ccnc(C)c21
- IC50 (HepG2 [3]): < 36 µM
- IC50 [4]: 36 µM
- IC50 (SGC-7901 [5]): < 36 µM

Compound: CN(C)c1ccc(-c2nc(C(=O)NCc3ccc(/C=C/C(=O)NO)cc3)cc3c2[nH]c2ccccc23)cc1
- IC50 (SMMC-7721 [6]): 1840 nM
- IC50 (Huh-7): 1840 nM
- IC50 (HCT-116 [7]): 1840 nM
- IC50 (Bel-7402): 1840 nM
- IC50 (Bel7402/5-FU): 1840 nM

Compound: COC(=O)c1cc2c([nH]c3ccccc32)c(C(C)=O)n1
- IC50 (HCT-116 [2]): 9.67 µg/mL

- IC50 (DNA topoisomerase 1): 2.5 µM
- IC50 [8]: 8.91 µM
Compound: Cc1ccc(-n2c(-c3cc4c([nH]c5ccccc54)c(-c4cccc(O)c4)n3)n[nH]c2=S)cc1

Compound: O=C(OCCCCCOC(=O)c1cc2c3ccccc3n(Cc3ccccc3F)c2cn1)c1cc2c3ccccc3n(Cc3ccccc3F)c2cn1
- IC50 (SMMC-7721 [9]): 5.61 µM
- IC50 (SGC-7901 [10]): 5.61 µM
- IC50 (HeLa): 5.61 µM
- IC50 (A549 [11]): 5.61 µM

Compound: COc1ccc(C(=O)n2c3ccccc3c3ccnc(-c4cc(-c5ccc(-c6nc7ccccc7s6)cc5)no4)c32)c(OC)c1OC
- IC50 (MCF7 [12]): 100 nM
- IC50 (A549 [13]): 140 nM
- IC50 (COLO 205): 640 nM
- IC50 (A2780): 190 nM

- IC50 (MDA-MB-231): 42 µg/mL (≈ 117 µM)
- IC50 (HT-29): 45 µg/mL (≈ 126 µM)
- IC50 (A549 [14]): 35 µg/mL (≈ 97.7 µM)
Compound: NC(=O)c1c(-c2c[nH]c3cc(O)ccc23)ncc2[nH]c3ccc(O)cc3c12

- IC50 (DNA topoisomerase 1): 5.8 µM
- IC50 [8]: 13.4 µM
Compound: O=C(NNC(=S)Nc1ccc(Br)cc1)c1cc2c([nH]c3ccccc32)c(-c2cccc(O)c2)n1

Compound: COc1cc2nc(-c3nc(-c4nccc5c4[nH]c4ccccc45)cs3)[nH]c2cc1OC
- IC50 (MCF7 [12]): 92 nM
- IC50 (A549 [13]): 720 nM
- IC50 (COLO 205): 340 nM
- IC50 (A2780): 1230 nM

Compound: COc1ccc2c3ccnc(C)c3n(CC3CC(c4ccccc4)=NO3)c2c1 (stereo not given)
- IC50 (MCF7 [1]): 800 nM

Compound: O=C(O)[C@H](O)Cc1nccc2c1[nH]c1ccccc12
- CC50 (HepG2 [15]): 39 µM

Compound: COc1ccc(-c2nc(Cn3cc(CN4C(=O)c5cccc6cccc(c56)C4=O)nn3)cc3c2[nH]c2ccccc23)cc1OC
- IC50 (MCF7 [16]): 7.46 µM
- IC50 (HeLa): 7.46 µM
- IC50 (HGC-27): 7.46 µM
- IC50 (PC-3): 7.46 µM

Compound: O=c1cc2c3ccccc3n3c(=O)ccc([nH]1)c23
- IC50 (Col2): 506 nM
- IC50 [17]: 506 nM
- IC50 (HUVEC): 506 nM
- IC50 (LNCaP): 506 nM
- IC50 (TERT-RPE1): 506 nM

Compound: Cc1ccccc1Cn1c2ccccc2c2cc(C(=O)OCCCCCOC(=O)c3cc4c5ccccc5n(Cc5ccccc5C)c4cn3)ncc21
- IC50 (SMMC-7721 [9]): 6.93 µM
- IC50 (SGC-7901 [10]): 6.93 µM
- IC50 (HeLa): 6.93 µM
- IC50 (A549 [11]): 6.93 µM
